From patent US20240425478A1, “CYCLOPENTYLPYRAZOLE CDK2 INHIBITORS” (Genentech, Inc., priority 2021, published 2024)
pIC50, pKi: −log10 of the molar value. Where two headings read alike, the source gives them in different places. Each block holds one compound with its values, some of them ahead of it.

What was measured:
[1] = target: T1, Cyclin Dependent Kinase 1/Cyclin A2 (CDK1-cycA2) (Homo sapiens, UniProt P06493); experiment: CDK1-cycA2 TR-FRET (Lance) enzyme assay; assay type: biochemical; settings: for pKi: Table O, enzymatic assay; for FS CDK1/CDK2: fold selectivity, enzymatic Ki ratio
T1 construct: purchased ProQinase 0134-0054-1
Summary of the method: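 TR-FRET (Lance) detection of phospho-4E-BP1 with a europium-labelled antibody after EDTA quench (15 mM final); signal taken as acceptor/donor ratio. Enzyme and compound were pre-incubated 30 min in HEPES pH 7.5 buffer with MgCl2, TCEP, BGG and Brij 35. Ki derived by Morrison fit.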

[2] = target: T2, Cyclin Dependent Kinase 2/Cyclin E1 (CDK2-cycE1) (Homo sapiens, UniProt P24941); experiment: CDK2-cycE1 TR-FRET (LANCE) enzyme assay; assay type: biochemical; settings: for FS CDK1/CDK2 / FS CDK4/CDK2: fold selectivity; for increased fold-selectivity CDK4/CDK2 over Comparator C: (+) sign after FS CDK4/CDK2;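 as to improvement in potency against CDK2 (Ki) over Comparator C: fold lower CDK2 Ki than comparator c (Ki 0.032 µM)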
T2 construct: purchased ProQinase 0050-0055-1
Summary of the method: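 Kinase reaction buffer: 50 mM HEPES pH 7.5, 10 mM MgCl2, 2 mM TCEP, 0.05% BGG, 0.01% Brij 35, with 30 min compound–enzyme pre-incubation.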

[3] = target: T3, Cyclin Dependent Kinase 4/Cyclin D3 (CDK4-cycD3) (Homo sapiens, UniProt P11802); experiment: CDK4-cycD3 TR-FRET (LANCE) enzyme assay; assay type: biochemical; settings: for pKi: Table O, enzymatic assay; for FS CDK4/CDK2: fold selectivity, enzymatic Ki ratio
T3 construct: purchased Carna Biosciences 04-105
Summary of the method: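 Compound dose responses pre-incubated 30 min with enzyme mix in 50 mM HEPES pH 7.5, 10 mM MgCl2, 2 mM TCEP, 0.05% BGG, 0.01% Brij 35. Reaction quenched with EDTA (15 mM final); Eu-anti-phospho-4E-BP1 TR-FRET detection, acceptor/donor ratio. Ki derived by Morrison equation.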

[4] = system: OVISE (JCRB1043, CCNE1-amplified); experiment: OVISE EdU incorporation cell proliferation assay (CDK2-dependent); assay type: cell-based; settings: for pIC50: cellular assay, read-out: CDK2 OVISE IC50; for FS SKOV-3/OVISE / FS p-H3/OVISE: fold selectivity; for FS p-H3/OVISE: cellular p-H3 IC50 over OVISE IC50; for increased fold-selectivity SKOV-3/OVISE over Comparator C: (+) sign after FS SKOV-3/OVISE; for improvement in CDK2 OVISE cell potency over Comparator C: Comparator C 5.5 μM
Summary of the method: (§1)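 EdU incorporation (0.5 μM final, last 8 h) follows a 16 h compound exposure at 37 °C, 5% CO2 in RPMI plus 10% FBS, 0.5% DMSO. After fixation, imaging scores EdU-positive cells; a 4-parameter logistic fit of that fraction gives IC50.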

[5] = system: SKOV-3 (ATCC HTB-77); experiment: SKOV-3 EdU incorporation cell proliferation assay (CDK4/6-dependent); assay type: cell-based; settings: for pIC50: Homo sapiens, cellular assay, read-out: CDK4/6 SKOV-3 IC50; for FS SKOV-3/OVISE: fold selectivity, cellular IC50 ratio
Summary of the method: as §1

[6] = system: HCT116 cells; experiment: p-H3 HCT-116 mitotic release cell proliferation assay (cellular CDK1); assay type: cell-based; settings: Homo sapiens, HCT-116; Table O, cellular assay; read-out: CDK1 p-H3 IC50
Procedure: Inhibition of cellular CDK1 determined by release of cells from nocodazole-induced mitotic arrest, as measured by decrease in phospho-Histone H3. Histone H3 (Ser 10) level is detected in cell lysates by producing a Fluorescence Resonance Energy Transfer (FRET) signal between two antibodies, Phospho-Histone H3 Cryptate (acting as the donor) and Phospho-Histone H3 d2 (acting as the acceptor).
Plates are allowed to rest overnight at 37° C./5% CO2. The following morning, nocodazole is diluted in complete medium, and 5 μL is added to each test well and positive control well for a final concentration of 500 nM. Plates are then incubated for 16 hours at 37° C./5% CO2. […] 10 μL of diluted compound is then transferred to the cell plate (final DMSO concentration 0.1%). Cell plates are then incubated for 4 hours in 37° C. 5% CO2. A cell lysis buffer is prepared on ice using reagents from the Phospho-Histone H3 (Ser10) cellular kit (Cisbio-64HH3PEG). Supernatant is discarded from the cell plate and 80 μL of the supplemented cell lysis buffer (1:99 dilution of the Blocking Reagent and the 1× cell lysis buffer provided in the kit) is added to each of the experimental wells. The cell lysis reaction is allowed to proceed at room temperature while shaking vigorously for 30 minutes. The 384-well HTRF (Homogeneous Time Resolved Fluorescence) plate is prepared by adding 2 μL of each diluted antibody (Phospho-Histone H3 Cryptate antibody and Phospho-Histone H3 d2 antibody diluted 19:1 in a detection buffer) and 12 μL of the supplemented cell lysis buffer to each well in the HTRF plate. 4 μL of the cell lysate is added to the prepared HTRF plate which is then sealed and the reaction is allowed to proceed for a minimum of 2 hours at room temperature.

[7] = Table O, enzymatic assay, read-out: CDK2 Ki
[8] = Table O, enzymatic CDK1 Ki over CDK2 Ki
[9] = Table O, enzymatic CDK4 Ki over CDK2 Ki
[10] = Table Q, enzymatic assay, read-out: CDK2 Ki
[11] = Table O, cellular SKOV-3 IC50 over OVISE IC50
[12] = Table Q, in brackets after OVISE IC50

T1 sequence (P06493 whole entry): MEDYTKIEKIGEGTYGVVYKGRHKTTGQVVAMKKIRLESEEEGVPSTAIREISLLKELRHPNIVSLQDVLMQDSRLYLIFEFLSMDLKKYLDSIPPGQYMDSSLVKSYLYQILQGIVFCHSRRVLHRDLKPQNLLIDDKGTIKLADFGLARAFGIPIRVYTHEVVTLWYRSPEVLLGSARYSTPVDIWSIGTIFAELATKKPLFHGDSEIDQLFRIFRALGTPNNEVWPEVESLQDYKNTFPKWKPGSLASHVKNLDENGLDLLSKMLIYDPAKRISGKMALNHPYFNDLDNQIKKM
T1 sequence (P20248 whole entry partner): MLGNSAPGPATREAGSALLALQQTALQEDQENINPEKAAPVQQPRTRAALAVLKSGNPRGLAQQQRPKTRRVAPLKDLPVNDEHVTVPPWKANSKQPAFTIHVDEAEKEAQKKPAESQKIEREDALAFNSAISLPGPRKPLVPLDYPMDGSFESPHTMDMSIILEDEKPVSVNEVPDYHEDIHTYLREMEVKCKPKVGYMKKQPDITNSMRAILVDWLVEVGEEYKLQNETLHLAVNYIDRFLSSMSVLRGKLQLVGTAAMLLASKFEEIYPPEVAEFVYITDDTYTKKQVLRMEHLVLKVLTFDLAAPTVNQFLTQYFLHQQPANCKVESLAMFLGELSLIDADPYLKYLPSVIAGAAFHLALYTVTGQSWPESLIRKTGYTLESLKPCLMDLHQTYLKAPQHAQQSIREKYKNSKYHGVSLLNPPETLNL
T3 sequence (P11802 whole entry): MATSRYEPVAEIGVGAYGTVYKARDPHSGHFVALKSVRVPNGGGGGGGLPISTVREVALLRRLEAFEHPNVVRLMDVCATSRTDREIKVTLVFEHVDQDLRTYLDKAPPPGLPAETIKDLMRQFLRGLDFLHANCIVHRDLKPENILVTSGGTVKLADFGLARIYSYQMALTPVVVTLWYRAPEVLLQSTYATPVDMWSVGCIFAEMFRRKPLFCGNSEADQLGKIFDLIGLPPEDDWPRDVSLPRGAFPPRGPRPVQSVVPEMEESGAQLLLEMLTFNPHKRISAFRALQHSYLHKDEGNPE
T3 sequence (P30281 whole entry partner): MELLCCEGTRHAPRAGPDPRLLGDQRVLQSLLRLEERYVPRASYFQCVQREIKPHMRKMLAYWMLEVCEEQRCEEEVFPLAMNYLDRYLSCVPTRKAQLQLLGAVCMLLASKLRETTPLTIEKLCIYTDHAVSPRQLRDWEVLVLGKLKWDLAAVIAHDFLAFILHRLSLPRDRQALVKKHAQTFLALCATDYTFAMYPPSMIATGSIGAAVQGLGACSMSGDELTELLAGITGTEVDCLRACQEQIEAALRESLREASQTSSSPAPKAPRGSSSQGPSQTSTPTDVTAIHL

- pKi [1]: 7.80
- pKi [2, 7]: 9.36
- FS CDK1/CDK2 [2, 8]: 36
- FS CDK4/CDK2 [2, 9]: 550
- pKi [2, 10]: 9.36
- FS CDK1/CDK2 ([2]; Table Q, enzymatic): 36
- FS CDK4/CDK2 ([2]; Table Q, enzymatic): 550
- improvement in potency against CDK2 (Ki) over Comparator C ([2]; Table Q, in brackets after CDK2 Ki, Comparator C 0.032 μM): 73 fold
- pKi ([2]; read-out: CDK2 activity / potency (enzymatic assay)): ≥ 9.00
- pKi [3]: 6.62
- pIC50 ([5]; SK-OV-3, Table O): 4.96
- pIC50 ([5]; SK-OV-3, Table Q): 4.96
- pIC50 [6]: 6.72
Structure (SMILES): CC(C)NC(=O)O[C@@H]1CC[C@H](c2cc(Nc3ccc(=O)n(C)n3)n[nH]2)C1 [Example 2, (1R,3S)-3-(3-((1-methyl-6-oxo-1,6-dihydropyridazin-3-yl)amino)-1H-pyrazol-5-yl)cyclopentyl isopropylcarbamate]
- increased fold-selectivity CDK4/CDK2 over Comparator C ([2]; Table Q): (+) (The (+) sign in Table Q signifies desirable increased fold-selectivity of the exemplary compounds over Comparator C)
- pIC50 ([4]; Table O): 7.03
- FS SKOV-3/OVISE [4, 11]: 120
- FS p-H3/OVISE ([4]; Table O): 1.9
- increased fold-selectivity SKOV-3/OVISE over Comparator C ([4]; Table Q): (+) (The (+) sign in Table Q signifies desirable increased fold-selectivity of the exemplary compounds over Comparator C)
- FS SKOV-3/OVISE ([4]; Table Q, cellular): 120
- improvement in CDK2 OVISE cell potency over Comparator C [4, 12]: 59 fold

Structure (SMILES): CC(C)NC(=O)O[C@@H]1CC[C@H](c2cc(Nc3cccnc3)n[nH]2)C1 [Example 2A, (1R,3S)-3-(3-(pyridin-3-ylamino)-1H-pyrazol-5-yl)cyclopentyl isopropylcarbamate]
- pKi [1]: 7.15
- FS CDK1/CDK2 increased over Comparator D, (+) sign ([1]; Table R): (+)
- FS CDK1/CDK2 ([1]; Table R): 42
- FS CDK1/CDK2 ([1]; Table S): 42
- improvement in potency against CDK2 (Ki) over Comparator C [2]: 19 fold
- pKi [2, 7]: 8.77
- FS CDK1/CDK2 [2, 8]: 42
- FS CDK4/CDK2 [2, 9]: 44
- increased fold-selectivity CDK1/CDK2 over Comparator C ([2]; Table Q, (+) sign after FS CDK1/CDK2): (+) (The (+) sign in Table Q signifies desirable increased fold-selectivity of the exemplary compounds over Comparator C)
- increased fold-selectivity CDK4/CDK2 over Comparator C ([2]; Table Q): (+) (The (+) sign in Table Q signifies desirable increased fold-selectivity of the exemplary compounds over Comparator C)
- pKi [2, 10]: 8.77
- FS CDK1/CDK2 ([2]; Table Q, enzymatic): 42
- FS CDK4/CDK2 ([2]; Table Q, enzymatic): 44
- pKi ([2]; Table R, enzymatic assay, read-out: CDK2 Ki): 8.77
- CDK2 Ki fold change in potency versus Comparator D ([2]; Table R, in brackets after CDK2 Ki): 1.6 fold
- pKi ([2]; Table S, enzymatic assay, read-out: CDK2 Ki): 8.77
- CDK2 Ki fold change in potency versus Comparator E ([2]; Table S, in brackets after CDK2 Ki): 0.3 fold
- pKi [3]: 7.12
- FS CDK4/CDK2 increased over Comparator D, (+) sign ([3]; Table R): (+)
- FS CDK4/CDK2 ([3]; Table R): 44
- FS CDK4/CDK2 ([3]; Table S): 44
- CDK2 cell potency compared with Comparator E ([4]; CDK2 OVISE cellular assay data): more potent CDK2 cell inhibitors compared to Comparator E
- pIC50 ([4]; Table O): 6.96
- FS SKOV-3/OVISE [4, 11]: 20
- FS p-H3/OVISE ([4]; Table O): 0.66
- increased fold-selectivity SKOV-3/OVISE over Comparator C ([4]; Table Q): (+) (The (+) sign in Table Q signifies desirable increased fold-selectivity of the exemplary compounds over Comparator C)
- FS SKOV-3/OVISE ([4]; Table Q, cellular): 20
- improvement in CDK2 OVISE cell potency over Comparator C [4, 12]: 50 fold
- CDK2 OVISE IC50 fold change in potency versus Comparator D ([4]; Table R, in brackets after OVISE IC50): 35 fold
- CDK2 OVISE IC50 fold change in potency versus Comparator E ([4]; Table S, in brackets after OVISE IC50): 1.5 fold
- pIC50 ([5]; SK-OV-3, Table O): 5.66
- pIC50 ([5]; SK-OV-3, Table Q): 5.66
- pIC50 ([5]; SK-OV-3, Table R): 5.66
- pIC50 ([5]; SK-OV-3, Table S): 5.66
- selectivity for CDK2 over CDK4 compared with Comparator E ([5]; SKOV-3/OVISE fold-selectivity cellular assay data): increase in selectivity for CDK2 over CDK4
- FS SKOV-3/OVISE increased over Comparator D, (+) sign ([5]; Table R): (+)
- FS SKOV-3/OVISE ([5]; Table R): 20
- FS SKOV-3/OVISE increased over Comparator E, (+) sign ([5]; Table S): (+)
- FS SKOV-3/OVISE ([5]; Table S): 20
- pIC50 [6]: 7.03
